What was measured:
[1] = target: T1, MreB from C. pneumoniae (chlamydial MreB) (Chlamydia pneumoniae, UniProt A0ABN3YSA6); details: 5 µM MreB, 200 µM ATP; polymerizing (5 mM MgCl2, pH 7) and monomeric (no MgCl2, pH 8) conditions
T1 sequence (A0ABN3YSA6 2-366): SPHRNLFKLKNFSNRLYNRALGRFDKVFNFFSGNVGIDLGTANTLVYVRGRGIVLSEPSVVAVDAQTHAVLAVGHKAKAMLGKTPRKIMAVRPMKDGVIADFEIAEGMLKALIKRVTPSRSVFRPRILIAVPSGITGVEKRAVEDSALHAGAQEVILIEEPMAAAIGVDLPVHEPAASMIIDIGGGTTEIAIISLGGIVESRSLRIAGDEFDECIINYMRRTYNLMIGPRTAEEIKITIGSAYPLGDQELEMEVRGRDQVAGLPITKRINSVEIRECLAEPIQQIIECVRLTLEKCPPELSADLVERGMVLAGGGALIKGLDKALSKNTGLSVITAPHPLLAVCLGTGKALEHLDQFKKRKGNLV

[2] = target: T1, MreB from C. pneumoniae (chlamydial MreB); assay: light scattering polymerization assay; type: biochemical; design: pET-21b, EcoRI/XhoI, C-terminal His6 tag kept; expressed in E. coli BL21(DE3); Ni-NTA purified; details: standard polymerization conditions (5 µM MreB, 5 mM MgCl2, pH 7, 20 °C)

## Nc1ncnc2c1ncn2[C@@H]1O[C@H](COP(=O)(O)OP(=O)(O)OP(=O)(O)O)[C@@H](O)[C@H]1O [ATP]
[1]
  phosphate release, molybdate-malachite green assay: The C345A mutant and wild-type MreB proteins hydrolyzed ATP without marked differences

## Nc1nc2c(ncn2[C@@H]2O[C@H](COP(=O)(O)OP(=O)(O)OP(=O)(O)O)[C@@H](O)[C@H]2O)c(=O)[nH]1 [GTP]
[2]
  light scattering polymerization assay: In the presence of GTP, the kinetics and extent of wild-type MreB polymerization was impaired

— article PMC3187750, “Functional Analysis of the Cytoskeleton Protein MreB from Chlamydophila pneumoniae” (PLoS ONE, 2011)
